Test results taken from US10266548B2, “Substituted benzylindazoles for use as Bub1 kinase inhibitors in the treatment of hyperproliferative diseases” (Bayer Intellectual Property GmbH, priority 2011, dated 2019).

Each molecule was assayed against catalytic domain of human Bub1 (amino acids 704-1085) (Homo sapiens (Human), UniProt O43683) (assay: Bub1 kinase assay (TR-FRET)). Conditions: 10 μM ATP, 1 μM peptide substrate; read-out: Biological Assay 1: Bub1 kinase assay median IC50.
Format: biochemical
Protocol: To this end, 100-fold concentrated compound solutions (in DMSO) were previously prepared by serial dilution (1:3.4) of 2 mM stocks in a clear low volume 384-well source microtiter plate (Greiner Bio-One, Frickenhausen, Germany), from which 50 nl of compounds were transferred into a black low volume test microtiter plate from the same supplier. […] The resulting mixture (5 μl final volume) was incubated at 22° C. during 60 min., and the reaction was stopped by the addition of 5 μl of an aqueous EDTA-solution (50 mM EDTA, in 100 mM HEPES pH 7.5 and 0.2% (w/v) bovine serum albumin) which also contained the TR-FRET detection reagents (0.2 μM streptavidin-XL665 [Cisbio Bioassays, Codolet, France] and 1 nM anti-phosho-Serine antibody [Merck Millipore, cat. #35-001] and 0.4 nM LANCE EU-W1024 labeled anti-mouse IgG antibody [Perkin-Elmer, product no. AD0077, alternatively a Terbium-cryptate-labeled anti-mouse IgG antibody from Cisbio Bioassays can be used]). The stopped reaction mixture was further incubated 1 h at 22° C. in order to allow the formation of complexes between peptides and detection reagents. Subsequently, the amount of product was evaluated by measurement of the resonance energy transfer from the Eu-chelate-antlbody complex recognizing the Phosphoserlne residue to the streptavidin-XL665 bound to the biotin moiety of the peptide. […] IC50 values were calculated by fitting the normalized inhibition data to a 4-parameter logistic equation (Minimum, Maximum, IC50, Hill; Y=Max+(Min−Max)/(1+(X/IC50)Hill)) using a Bayer-proprietary analysis software.

Sequence of catalytic domain of human Bub1 (amino acids 704-1085) (O43683 704-1085): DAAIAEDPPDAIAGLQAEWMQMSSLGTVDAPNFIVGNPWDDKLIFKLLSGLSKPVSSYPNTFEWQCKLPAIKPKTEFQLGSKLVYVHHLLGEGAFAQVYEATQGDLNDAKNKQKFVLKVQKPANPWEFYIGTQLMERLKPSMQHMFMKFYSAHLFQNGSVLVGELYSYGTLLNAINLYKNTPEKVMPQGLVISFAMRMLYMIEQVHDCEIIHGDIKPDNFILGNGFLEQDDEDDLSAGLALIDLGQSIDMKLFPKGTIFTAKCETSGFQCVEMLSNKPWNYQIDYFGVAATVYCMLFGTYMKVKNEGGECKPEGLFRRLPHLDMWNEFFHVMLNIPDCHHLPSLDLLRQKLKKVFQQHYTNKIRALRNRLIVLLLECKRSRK

Compared with COc1cnc(-c2nn(Cc3c(F)cccc3OC)c3ccccc23)nc1Nc1ccncc1 [Example 2-49-1, 2-[1-(2-fluoro-6-methoxybenzyl)-1H-indazol-3-yl]-5-methoxy-N-(pyridin-4-yl)pyrimidin-4-amine], COc1cc(C(F)(F)F)ccc1Cn1nc(-c2ncc(OC)c(Nc3ccncc3)n2)c2ccccc21 [Example 2-47-1, 5-methoxy-2-{1-[2-methoxy-4-(trifluoromethyl)benzyl]-1H-indazol-3-yl}-N-(pyridin-4-yl)pyrimidin-4-amine] is 1.6-fold higher in IC50: 1500 nM for the first, 2400 nM for the second. The first is the more potent here.

COc1cnc(-c2nn(Cc3c(Cl)ccc([N+](=O)[O-])c3Cl)c3ccccc23)nc1Nc1ccncc1 [Example 2-44-1, 2-[1-(2,6-dichloro-3-nitrobenzyl)-1H-indazol-3-yl]-5-methoxy-N-(pyridin-4-yl)pyrimidin-4-amine] and COc1cnc(-c2nn(Cc3c(Cl)ccc(N)c3Cl)c3ccccc23)nc1Nc1ccncc1 [Example 40-1, 2-[1-(3-amino-2,6-dichlorobenzyl)-1H-indazol-3-yl]-5-methoxy-N-(pyridin-4-yl)pyrimidin-4-amine] are within 1.5-fold of each other in IC50: 41 nM for the first, 39 nM for the second.

Going from COc1cnc(-c2nn(Cc3c(Cl)ccc(C(=O)O)c3Cl)c3ccccc23)nc1Nc1ccncc1 [Example 19-1, 2,4-dichloro-3-({3-[5-methoxy-4-(pyridin-4-ylamino)pyrimidin-2-yl]-1H-indazol-1-yl}methyl)benzoic acid] to COc1cnc(-c2nn(Cc3ccc(CC(=O)O)cc3F)c3ccccc23)nc1Nc1ccncc1 [Example 2-22-1, [3-fluoro-4-({3-[5-methoxy-4-(pyridin-4-ylamino)pyrimidin-2-yl]-1H-indazol-1-yl}methyl)phenyl]acetic acid], the IC50 falls from 20000 nM to 3200 nM (6.2-fold).

COc1cnc(-c2nn(Cc3c(F)cc(OC(F)F)cc3F)c3ccccc23)nc1N(Cc1c(F)cc(OC(F)F)cc1F)c1ccncc1 [Example 2-39-2, N-[4-(difluoromethoxy)-2,6-difluorobenzyl]-2-{1-[4-(difluoromethoxy)-2,6-difluorobenzyl]-1H-indazol-3-yl}-5-methoxy-N-(pyridin-4-yl)pyrimidin-4-amine] and CCOc1cc(F)c(CN(c2ccncc2)c2nc(-c3nn(Cc4c(F)cc(OCC)cc4F)c4ccccc34)ncc2OC)c(F)c1 [Example 2-5-2, N-(4-ethoxy-2,6-difluorobenzyl)-2-[1-(4-ethoxy-2,6-difluorobenzyl)-1H-indazol-3-yl]-5-methoxy-N-(pyridin-4-yl)pyrimidin-4-amine] are within 1.5-fold of each other in IC50: 6900 nM for the first, 9300 nM for the second.

Compared with N#Cc1cnccc1Nc1nc(-c2nn(Cc3ccccc3F)c3ccccc23)ncc1Oc1ccncc1C#N [Example 26-2], N#Cc1cnc(-c2nn(Cc3ccccc3F)c3ccccc23)nc1Nc1ccncc1 [Example 31-1, 2-[1-(2-fluorobenzyl)-1H-indazol-3-yl]-4-(pyridin-4-ylamino)pyrimidine-5-carbonitrile] is 2-fold higher in IC50: 2400 nM for the first, 4700 nM for the second.

Going from CCOc1cc(F)c(Cn2nc(-c3nccc(N(c4ccncc4)C(F)F)n3)c3ccccc32)c(F)c1 [Example 35-1, N-(difluoromethyl)-2-[1-(4-ethoxy-2,6-difluorobenzyl)-1H-indazol-3-yl]-N-(pyridin-4-yl)pyrimidin-4-amine] to CCOc1cc(F)c(Cn2nc(-c3ncc(OC[C@@H]4CCC(=O)N4)c(Nc4ccncc4)n3)c3ccccc32)c(F)c1 [Example 4-18, formic acid - (5S)-5-[({2-[1-(4-ethoxy-2,6-difluorobenzyl)-1H-indazol-3-yl]-4-(pyridin-4-ylamino)pyrimidin-5-yl}oxy)methyl] pyrrolidin-2-one (1:1)], the IC50 falls from 1300 nM to 12 nM (110-fold).

COc1cnc(-c2nn(Cc3cccc(C#N)c3)c3ccccc23)nc1Nc1ccncc1 [Example 2-45-1, 3-({3-[5-methoxy-4-(pyridin-4-ylamino)pyrimidin-2-yl]-1H-indazol-1-yl}methyl)benzonitrile] and COc1cnc(-c2nn(Cc3cccc(-n4cccc4)c3)c3ccccc23)nc1Nc1ccncc1 [Example 2-1-3, 5-methoxy-N-(pyridin-4-yl)-2-{1-[3-(1H-pyrrol-1-yl)benzyl]-1H-indazol-3-yl}pyrimidin-4-amine] are within 1.5-fold of each other in IC50: 110 nM for the first, 120 nM for the second.

Compared with CNC(=O)c1cc(F)c(Cn2nc(-c3ncc(OC)c(Nc4ccncc4)n3)c3ccccc32)c(F)c1 [Example 20-6, 3,5-difluoro-4-({3-[5-methoxy-4-(pyridin-4-yla-mino)pyrimidin-2-yl]-1H-indazol-1-yl}methyl)-N-methylbenzamide], COc1cnc(-c2nn(Cc3ccc(C(C)(C)O)cc3Cl)c3ccccc23)nc1Nc1ccncc1 [Example 9-1, 2-[3-chloro-4-({3-[5-methoxy-4-(pyridin-4-ylamino)pyrimidin-2-yl]-1H-indazol-1-yl}methyl)phenyl]propan-2-ol] is 680-fold lower in IC50: 6700 nM for the first, 9.8 nM for the second. The second is the more potent here.

First: CCOc1ccc(CN(c2ccncc2)c2nc(-c3nn(Cc4ccc(OCC)c(F)c4F)c4ccccc34)ncc2OC)c(F)c1F [Example 2-14-2, N-(4-ethoxy-2,3-difluorobenzyl)-2-[1-(4-ethoxy-2,3-difluorobenzyl)-1H-indazol-3-yl]-5-methoxy-N-(pyridin-4-yl)pyrimidin-4-amine]
Second: COc1cnc(-c2nn(Cc3ccc(C)c(F)c3F)c3ccccc23)nc1N(Cc1ccc(C)c(F)c1F)c1ccncc1 [Example 2-8-2, N-(2,3-difluoro-4-methylbenzyl)-2-[1-(2,3-difluoro-4-methylbenzyl)-1H-indazol-3-yl]-5-methoxy-N-(pyridin-4-yl)pyrimidin-4-amine]
The IC50 of the first is 2.5-fold higher: 730 nM for the first, 290 nM for the second.

CCOc1cc(F)c(Cn2nc(-c3ncc(OCC4CN(C(=O)OC(C)(C)C)CCO4)c(Nc4ccncc4)n3)c3ccccc32)c(F)c1 (stereo not drawn) [Example 4-11, tert-butyl 2-[({2-[1-(4-ethoxy-2,6-difluorobenzyl)-1H-indazol-3-yl]-4-(pyridin-4-ylamino)pyrimidin-5-yl}oxy)methyl] morpholine-4-carboxylate] and COc1cnc(-c2nn(Cc3cccc(-c4noc(C)n4)c3)c3ccccc23)nc1Nc1ccncc1 [Example 2-2-3, 5-methoxy-2-{1-[3-(5-methyl-1,2,4-oxadiazol-3-yl)benzyl]-1H-indazol-3-yl}-N-(pyridin-4-yl)pyrimidin-4-amine] are within 1.5-fold of each other in IC50: 24 nM for the first, 25 nM for the second.

Compared with COc1cnc(-c2nn(Cc3ccc(SC(F)(F)F)cc3)c3ccccc23)nc1Nc1ccncc1 [Example 2-9-3, 5-methoxy-N-(pyridin-4-yl)-2-(1-{4-[(trifluoromethyl)sulfanyl]benzyl}-1H-indazol-3-yl)pyrimidin-4-amine], COc1ccc(Cn2nc(-c3ncc(OC)c(Nc4ccnc(C)c4)n3)c3ccccc32)cc1 [Example 34-4, 5-methoxy-2-[1-(4-methoxybenzyl)-1H-indazol-3-yl)-N-(2-methylpyridin-4-yl)pyrimidin-4-amine] is 170-fold lower in IC50: 20000 nM for the first, 120 nM for the second.

Fc1ccccc1Cn1nc(-c2ncc(OCCc3nnn[nH]3)c(N(CCc3nnn[nH]3)c3ccncc3)n2)c2ccccc21 [Example 4-5-2, 2-[1-(2-fluorobenzyl)-1H-indazol-3-yl]-N-(pyridin-4-yl)-5-[2-(1H-tetrazol-5-yl)ethoxy]-N-[2-(1H-tetrazol-5-yl)ethyl]pyrimidin-4-amine] and OCC1(COc2cnc(-c3nn(Cc4ccccc4F)c4ccccc34)nc2N(CC2(CO)COC2)c2ccncc2)COC1 [Example 4-2-2, (3-{[(2-[1-(2-fluorobenzyl)-1H-indazol-3-yl]-5-{[3-(hydroxymethyl)oxetan-3-yl]methoxy}pyrimidin-4-yl)(pyridin-4-yl)amino]methyl}oxetan-3-yl)methanol] are within 1.5-fold of each other in IC50: 330 nM for the first, 430 nM for the second.

Going from COc1cnc(-c2nn(Cc3ccccc3F)c3ccccc23)nc1N(c1ccncc1)c1ccncc1 [Example 24-4] to COc1cnc(-c2nn(Cc3ccccc3Br)c3ccccc23)nc1N(Cc1ccccc1Br)c1ccncc1 [Example 2-21-2, N-(2-bromobenzyl)-2-[1-(2-bromobenzyl)-1H-indazol-3-yl]-5-methoxy-N-(pyridin-4-yl)pyrimidin-4-amine], the IC50 rises from 4280 nM to 20000 nM (4.7-fold).

First: COc1cnc(-c2nn(Cc3c(F)ccc(OC)c3F)c3ccccc23)nc1N(Cc1c(F)ccc(OC)c1F)c1ccncc1 [Example 2-4-2, N-(2,6-difluoro-3-methoxybenzyl)-2-[1-(2,6-difluoro-3-methoxybenzyl)-1H-indazol-3-yl]-5-methoxy-N-(pyridin-4-yl)pyrimidin-4-amine]
Second: COc1cnc(-c2nn(Cc3c(F)cccc3F)c3ccccc23)nc1N(Cc1c(F)cccc1F)c1ccncc1 [Example 2-7-2, N-(2,6-difluorobenzyl)-2-[1-(2,6-difluorobenzyl)-1H-indazol-3-yl]-5-methoxy-N-(pyridin-4-yl)pyrimidin-4-amine]
The IC50 of the first is 17-fold higher: 3500 nM for the first, 210 nM for the second.

Compared with OCC1COc2cnc(-c3nn(Cc4ccccc4F)c4ccccc34)nc2N1c1ccncc1 (stereo not drawn) [Example 22-1, {2-[1-(2-fluorobenzyl)-1H-indazol-3-yl]-8-(pyridin-4-yl)-7,8-dihydro-6H-pyrimido[5,4-b][1,4]oxazin-7-yl}methanol], COc1cnc(-c2nn(Cc3c(Cl)cccc3Cl)c3ccccc23)nc1N(Cc1c(Cl)cccc1Cl)c1ccncc1 [Example 2-9-2, N-(2,6-dichlorobenzyl)-2-[1-(2,6-dichlorobenzyl)-1H-indazol-3-yl]-5-methoxy-N-(pyridin-4-yl)pyrimidin-4-amine] is 3.2-fold lower in IC50: 770 nM for the first, 240 nM for the second. The second is the more potent here.
